Source: PMC2867956, “Interdomain Interactions Control Ca^2+-Dependent Potentiation in the Cation Channel TRPV4” (PLoS ONE, 2010)
“Also recorded” adds a separate entry of the source. No end group written: not given here.

Legend:
P2/C2 complex = assay: AlphaScreen competition, C2-Flag/P2-biotin complex; format: binding, human; conditions: read-out: IC50, competition of P2/C2 complex; C2-Flag and P2-biotin; untagged competitor; AlphaScreen pH 7.4, 90 min room temperature
Excerpt: (§1) First, we did a complementation experiment to test whether a CaM molecule that binds to the C2 fragment of TRPV4 through its C-lobe can form an additional interaction with another CaM binding domain thus forming a ternary complex. […] We used an AlphaScreen-based proximity assay (Fig. 2, Methods S1) in which the acceptor beads were coated with the C-terminal fragment C2-Flag, and the donor beads either with the N-terminal CaM binding peptide P2-biotin, or, as a negative control, with C2-biotin. The interaction between the proteins was measured in the presence of increasing CaM concentrations in 100 µM Ca^2+ or 1 mM EGTA (Fig. 3A).
(§2) AlphaScreen acceptor and donor beads were coated with C2-Flag and either P2-biotin (Fig. 7D) or CaM-biotin at 100 µM Ca^2+ (Fig. 7E) and incubated with untagged C2 or N2 competitor proteins at the indicated concentrations. […] A similar finding was observed when the CaM/C2 interaction was subjected to competition by C2 or N2 (Fig. 7E).
Proteins were expressed in E. coli, affinity purified and biotinylated if applicable (for details see Methods S1). For protein interaction measurements, a proximity assay system based on the AlphaScreen technology (PerkinElmer) was used (see Methods S1). […] After incubation for 90 min at room temperature, the AlphaScreen output signal was recorded in a Fusion alpha FP instrument (PerkinElmer) at 2 s reading time per well. […]

CaM/C2 complex = assay: AlphaScreen competition, C2-Flag/CaM-biotin complex; format: binding, human; conditions: C2-Flag and CaM-biotin at 100 µM Ca^2+; untagged competitor; AlphaScreen pH 7.4, 90 min room temperature
Experimental: as §2
(§3) Proteins were expressed in E. coli, affinity purified and biotinylated if applicable (for details see Methods S1). For protein interaction measurements, a proximity assay system based on the AlphaScreen technology (PerkinElmer) was used (see Methods S1). Briefly, streptavidin-coated AlphaScreen donor and anti-Flag acceptor beads at a final concentration of 16.7 µg/ml were incubated in a 384-well plate format (OptiPlate-384, PerkinElmer) with C2-GST-biotin or P2-biotin and the respective Flag-tagged interaction protein at concentrations of 10 nM, if not otherwise indicated. Assay buffer conditions were 50 mM Tris, pH 7.4, 100 mM KCl, and 0.1% BSA. After incubation for 90 min at room temperature, the AlphaScreen output signal was recorded in a Fusion alpha FP instrument (PerkinElmer) at 2 s reading time per well. AlphaScreen signals are given as mean±SEM in counts per second (cps) units.
Proteins used for competition experiments were subjected to gel filtration into the assay buffer using a PD-10 column (Amersham).

TRPV4 C2 fragment = assay: AlphaScreen interdomain interaction with C2; format: binding, human; conditions: 10 nM C2-biotin, N2-Flag 30 pM to 1.5 µM, N3 data not shown
Excerpt: as §1
In an AlphaScreen interaction experiment, donor and acceptor beads were incubated with 10 nM C2-biotin and N2-Flag at concentrations ranging from 30 pM to 1.5 µM, respectively (Fig. 3C).
as §3
The expression plasmids containing the cDNA for CaM or TRPV4 fragments in the pGEX-2TK vector (Amersham) or a modified derivative that contains an in-frame Flag epitope 5’ to the multiple cloning site were transformed into the BL21(DE3) Escherichia coli host, and protein expression was induced by 200 mg/ml IPTG at an OD600 of 0.6. […] The GST-Flag fusion proteins were eluted with 50 mM Tris, pH 8.5, 100 mM KCl, and 10 mM glutathione. […] The purity of all proteins was confirmed by SDS-polyacrylamide gel electrophoresis and Coomassie staining, and the protein concentration determined by the method according to Bradford using an albumin concentration standard. […]
To establish an improved interaction assay, that allows the quantification of protein interactions on a medium to high throughput scale, a commercially available proximity assay system based on the AlphaScreen (Amplified Luminescent Proximity Homogenous Assay) technology (PerkinElmer) was modified. […]

N2 = assay: Gel filtration, N2 dimerization; format: physicochemical, human; conditions: non-denaturing, 50 mM sodium phosphate pH 7.0, 200 mM KCl
Experimental: Purified proteins or gel filtration standard (BioRad) were loaded onto a Bio-Sil 250 (BioRad) size exclusion chromatography column and eluted with a buffer containing 50 mM sodium phosphate, pH 7.0 and 200 mM KCl. The elution profile was recorded by continuous absorption measurement at 280 nm.

N2 mutant WIA = assay: AlphaScreen N-terminal homologous interaction, N2 mutant WIA; format: binding, human; conditions: nominally Ca^2+-free buffers
Experimental: (§4) Proteins were expressed in E. coli, affinity purified and biotinylated if applicable (for details see Methods S1). For protein interaction measurements, a proximity assay system based on the AlphaScreen technology (PerkinElmer) was used (see Methods S1). […] Assay buffer conditions were 50 mM Tris, pH 7.4, 100 mM KCl, and 0.1% BSA. After incubation for 90 min at room temperature, the AlphaScreen output signal was recorded in a Fusion alpha FP instrument (PerkinElmer) at 2 s reading time per well. AlphaScreen signals are given as mean±SEM in counts per second (cps) units.

wild type N2 fragment = assay: AlphaScreen N-terminal homologous interaction, wild type N2; format: binding, human; conditions: nominally Ca^2+-free buffers
Experimental: as §4

Which results are given for “N2: N-terminal TRPV4 fragment, residues 79-138 (VPNPIDLLESTLYESSVVPGPKKAPMDSLFDYGTYRHHSSDNKRWRKKIIEKQPQSPKAP; also: Flag tag; UniProt Q9HBA0 79-138, looked up, fragment)”?
IC50 (P2/C2 complex): 166 nM; IC50 (CaM/C2 complex): 522 nM; interaction with C2 (TRPV4 C2 fragment): interdomain interaction could also be shown; oligomeric state (N2): a single peak was detected at a size that corresponds to the dimeric form; also recorded: monophasic elution profile with an apparent molecular size that corresponds with a dimeric form of the protein

For “P2: N-terminal CaM binding peptide of TRPV4, residues 117-136”, which “binding of P2 to N2 mutant WIA” value (N2 mutant WIA) is on record?
The value was “bound strongly”.

And the “binding of P2 to wild type N2” value (wild type N2 fragment)?
Its value is “bound strongly”.
